# Laboratory results: patent publication US20260070945A1, “MACROCYCLIC IMMUNOMODULATORS” (Bristol-Myers Squibb Company, priority 2022, published 2026)
# Where a SMILES comes first, the peptide text is derived from it. Bridges are numbered along the chain shown (N, C = ends). [ ]: non-standard residue; d: D form. The star is where a group is joined. ξ: configuration not given here. Phe(4-CONH2) = NC(=O)c1ccc(C[C@H](N)C(=O)O)cc1; Phe(4-COOH) = N[C@@H](Cc1ccc(C(=O)O)cc1)C(=O)O; Bip = N[C@@H](Cc1ccc(-c2ccccc2)cc1)C(=O)O; Phe(3-Me) = Cc1cccc(C[C@H](N)C(=O)O)c1; Val(3-OH) = CC(C)(O)[C@H](N)C(=O)O; hArg = N=C(N)NCCCC[C@H](N)C(=O)O; 4Pal = N[C@@H](Cc1ccncc1)C(=O)O; Cha = N[C@@H](CC1CCCCC1)C(=O)O; Ile(3ξ) = CCC(C)[C@H](N)C(=O)O; Thr(3ξ) = CC(O)[C@H](N)C(=O)O; Ala(CN) = N#CC[C@H](N)C(=O)O; 3Abz = Nc1cccc(C(=O)O)c1; Carboxymethyl = O=C(O)C*; NMeA = CN[C@@H](C)C(=O)O; Orn = NCCC[C@H](N)C(=O)O; Aun = NCCCCCCCCCCC(=O)O; Dab = NCC[C@H](N)C(=O)O; Nva = CCC[C@H](N)C(=O)O; Dap = NC[C@H](N)C(=O)O; AEEA = NCCOCCOCC(=O)O
# Target: T1, PD-1/PD-L1 interaction (PE-labeled human PD-L1-Ig binding to Jurkat cell line over-expressing human PD-1) (Homo sapiens, UniProt Q15116)
# T1 construct: expressed in transfected cells; host or cells: Jurkat
# T1 sequence (Q15116 25-288): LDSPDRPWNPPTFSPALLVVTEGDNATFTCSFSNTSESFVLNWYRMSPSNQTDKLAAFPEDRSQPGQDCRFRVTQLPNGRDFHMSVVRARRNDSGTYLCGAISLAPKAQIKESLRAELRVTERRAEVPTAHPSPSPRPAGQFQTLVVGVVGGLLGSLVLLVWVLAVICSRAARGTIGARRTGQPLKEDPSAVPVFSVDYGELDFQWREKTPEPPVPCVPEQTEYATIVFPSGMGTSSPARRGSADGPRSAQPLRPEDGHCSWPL
# Assay: Jurkat-PD-1 Cell Binding High-Content Screening Assay (CBA)
# Conditions: Jurkat-hPD-1 cells, PE-labeled PD-L1-Ig 20 nM final; read-out: Jurkat HPD1 PDL1 IC50
# How it was run: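 Jurkat cells overexpressing human PD-1 (8×10^3/well, DMEM + 10% FCS) preincubated with compound 2 h at 37 °C, then PE-labelled human PD-L1-Ig (20 nM final) for 1 h. Cells fixed in paraformaldehyde with Hoechst 33342; bound PD-L1 quantified by high-content imaging.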
row,SMILES,IC50 [nM]
1,CC[C@H](C)[C@@H]1NC(=O)[C@H](Cc2ccc(-c3ccccc3)cc2)NC(=O)[C@H](CC(C)C)NC(=O)[C@H](Cc2c[nH]c3ccccc23)NC(=O)[C@H](CC(=O)O)NC(=O)[C@H](Cc2ccc(C(=O)O)cc2)NC(=O)[C@H](Cc2ccc(OCC(=O)O)cc2)NC(=O)CSC[C@@H](C(=O)N[C@@H](CN)C(=O)NCCCCCCCCCCC(=O)O)NC(=O)[C@H](CO)NC(=O)[C@H](C(C)C)NC(=O)[C@H](CC2CCCCC2)NC(=O)[C@H](CCN)NC(=O)[C@@H](CC(C)C)NC(=O)[C@H](C)N(C)C1=O [Example 1070] ({CH2CO}-Y(Carboxymethyl)[Phe(4-COOH)]DWL[Bip]I[NMeA][dL][Dab][Cha]VSC[Dap][Aun]-OH; thioether N-14),39.2
2,CCC(C)[C@@H]1NC(=O)[C@H](Cc2ccc(-c3ccccc3)cc2)NC(=O)[C@H](CC(C)C)NC(=O)[C@H](Cc2c[nH]c3ccccc23)NC(=O)[C@H](CC(=O)O)NC(=O)[C@H](Cc2ccc(O)cc2)NC(=O)[C@H](CC#N)NC(=O)CSC[C@@H](C(=O)N[C@@H](CN)C(=O)NCCOCCOCC(=O)NCCCCCCCCCCC(=O)O)NC(=O)[C@H](CO)NC(=O)[C@H](C(C)C)NC(=O)[C@H](CC2CCCCC2)NC(=O)[C@H](CCN)NC(=O)[C@@H](CC(C)C)NC(=O)[C@H](C)N(C)C1=O (stereo partly drawn) [Example 2054] ({CH2CO}-[Ala(CN)]YDWL[Bip][Ile(3ξ)][NMeA][dL][Dab][Cha]VSC[Dap][AEEA][Aun]-OH; thioether N-14),14.3
3,CCC(C)[C@@H]1NC(=O)[C@H](Cc2ccc(-c3ccccc3)cc2)NC(=O)[C@H](CC(C)C)NC(=O)[C@H](Cc2c[nH]c3ccccc23)NC(=O)[C@H](CC(=O)O)NC(=O)[C@H](Cc2ccc(OCC(=O)O)cc2)NC(=O)[C@H](CCCCNC(=N)N)NC(=O)CSC[C@@H](C(=O)NCCOCCOCC(=O)N[C@@H](CCN)C(=O)NCCCCCCCCCCC(=O)O)NC(=O)[C@H](CCCCN)NC(=O)[C@H](C(C)C)NC(=O)[C@H](CC2CCCCC2)NC(=O)[C@H](CCN)NC(=O)[C@@H](CC(C)C)NC(=O)[C@H](C)N(C)C1=O (stereo partly drawn) [Example 2184] ({CH2CO}-[hArg]Y(Carboxymethyl)DWL[Bip][Ile(3ξ)][NMeA][dL][Dab][Cha]VKC[AEEA][Dab][Aun]-OH; thioether N-14),30.2
4,Cc1cccc(C[C@@H]2NC(=O)[C@H](CC(=O)O)NC(=O)[C@H](Cc3ccc(OCC(=O)O)cc3)NC(=O)[C@H](CN)NC(=O)CSC[C@@H](C(=O)NCCOCCOCC(=O)NCCCCCCCCCCC(=O)O)NC(=O)[C@H](CCCN)NC(=O)[C@H](C(C)C)NC(=O)[C@H](CC3CCCCC3)NC(=O)[C@H](CCN)NC(=O)[C@@H](CC(C)C)NC(=O)[C@H](C)N(C)C(=O)[C@H](Cc3ccc(O)cc3)NC(=O)[C@H](Cc3ccc(-c4ccccc4)cc3)NC(=O)[C@H](Cc3ccc(O)cc3)NC2=O)c1 [Example 1316] ({CH2CO}-[Dap]Y(Carboxymethyl)D[Phe(3-Me)]Y[Bip]Y[NMeA][dL][Dab][Cha]V[Orn]C[AEEA][Aun]-OH; thioether N-14),97.7
5,CC(C)C[C@@H]1NC(=O)[C@H](Cc2c[nH]c3ccccc23)NC(=O)[C@H](CC(=O)O)NC(=O)[C@H](Cc2ccncc2)NC(=O)[C@H](Cc2ccc(OCC(=O)O)cc2)NC(=O)CSC[C@@H](C(=O)Nc2cccc(C(=O)NCCCCCCCCCCC(=O)O)c2)NC(=O)[C@H](CN)NC(=O)[C@H](C(C)C)NC(=O)[C@H](CC2CCCCC2)NC(=O)[C@H](CCN)NC(=O)[C@@H](CC(C)C)NC(=O)[C@H](C)N(C)C(=O)[C@H](C(C)C)NC(=O)[C@H](Cc2ccc(-c3ccccc3)cc2)NC1=O [Example 1216] ({CH2CO}-Y(Carboxymethyl)[4Pal]DWL[Bip]V[NMeA][dL][Dab][Cha]V[Dap]C[3Abz][Aun]-OH; thioether N-14),265

# Same assay, conditions: PE-labeled PD-L1-Ig 20 nM final, Jurkat-hPD-1 cells; read-out: Jurkat HPD1 PDL1 IC50
row,SMILES,IC50 [nM]
1,Cc1cccc(C[C@@H]2NC(=O)[C@H](CC(=O)O)NC(=O)[C@H](Cc3ccc(OCC(=O)O)cc3)NC(=O)[C@H](Cc3ccncc3)NC(=O)CSC[C@@H](C(=O)NCCOCCOCC(=O)NCCOCCOCC(=O)NCCCCCCCCCCC(=O)O)NC(=O)[C@H](CCC(=O)O)NC(=O)[C@H](C(C)(C)O)NC(=O)[C@H](CC3CCCCC3)NC(=O)[C@H](CCN)NC(=O)[C@@H](CC(C)C)NC(=O)[C@H](C)N(C)C(=O)[C@H](Cc3ccc(C(=O)O)cc3)NC(=O)[C@H](Cc3ccc(-c4ccccc4)cc3)NC(=O)[C@H](Cc3ccc(C(=O)O)cc3)NC2=O)c1 [Example 2486] ({CH2CO}-[4Pal]Y(Carboxymethyl)D[Phe(3-Me)][Phe(4-COOH)][Bip][Phe(4-COOH)][NMeA][dL][Dab][Cha][Val(3-OH)]EC[AEEA][AEEA][Aun]-OH; thioether N-14),305
2,Cc1cccc(C[C@@H]2NC(=O)[C@H](CC(=O)O)NC(=O)[C@H](Cc3ccc(C(=O)O)cc3)NC(=O)[C@H](Cc3ccncc3)NC(=O)CSC[C@@H](C(=O)NCCOCCOCC(=O)NCCCCCCCCCCC(=O)O)NC(=O)[C@H](CO)NC(=O)[C@H](C(C)(C)O)NC(=O)[C@H](CC3CCCCC3)NC(=O)[C@H](CCN)NC(=O)[C@@H](CC(C)C)NC(=O)[C@H](C)N(C)C(=O)[C@H](Cc3ccc(OCC(=O)O)cc3)NC(=O)[C@H](Cc3ccc(-c4ccccc4)cc3)NC(=O)[C@H](Cc3ccc(OCC(=O)O)cc3)NC2=O)c1 [Example 2463] ({CH2CO}-[4Pal][Phe(4-COOH)]D[Phe(3-Me)]Y(Carboxymethyl)[Bip]Y(Carboxymethyl)[NMeA][dL][Dab][Cha][Val(3-OH)]SC[AEEA][Aun]-OH; thioether N-14),69.3
3,CCC[C@@H]1NC(=O)CSC[C@@H](C(=O)N[C@@H](CCN)C(=O)NCCOCCOCC(=O)NCCCCCCCCCCC(=O)O)NC(=O)[C@H](CCC(=O)O)NC(=O)[C@H](CO)NC(=O)[C@H](CC2CCCCC2)NC(=O)[C@H](CCN)NC(=O)[C@@H](CC(C)C)NC(=O)[C@H](C)N(C)C(=O)[C@H](Cc2ccc(OCC(=O)O)cc2)NC(=O)[C@H](Cc2ccc(-c3ccccc3)cc2)NC(=O)[C@H](Cc2ccc(OCC(=O)O)cc2)NC(=O)[C@H](Cc2cccc(C)c2)NC(=O)[C@H](CC(=O)O)NC(=O)[C@H](Cc2ccc(C(=O)O)cc2)NC1=O [Example 2561] ({CH2CO}-[Nva][Phe(4-COOH)]D[Phe(3-Me)]Y(Carboxymethyl)[Bip]Y(Carboxymethyl)[NMeA][dL][Dab][Cha]SEC[Dab][AEEA][Aun]-OH; thioether N-14),24.1
4,Cc1cccc(C[C@@H]2NC(=O)[C@H](CC(=O)O)NC(=O)[C@H](Cc3ccc(C(=O)O)cc3)NC(=O)[C@H](Cc3ccncc3)NC(=O)CSC[C@@H](C(=O)N[C@@H](CCN)C(=O)NCCOCCOCC(=O)NCCCCCCCCCCC(=O)O)NC(=O)[C@H](C(C)O)NC(=O)[C@H](C(C)(C)O)NC(=O)[C@H](CC3CCCCC3)NC(=O)[C@H](CCN)NC(=O)[C@@H](CC(C)C)NC(=O)[C@H](C)N(C)C(=O)[C@H](CCC(=O)O)NC(=O)[C@H](Cc3ccc(-c4ccccc4)cc3)NC(=O)[C@H](Cc3ccc(C(N)=O)cc3)NC2=O)c1 (stereo partly drawn) [Example 2540] ({CH2CO}-[4Pal][Phe(4-COOH)]D[Phe(3-Me)][Phe(4-CONH2)][Bip]E[NMeA][dL][Dab][Cha][Val(3-OH)][Thr(3ξ)]C[Dab][AEEA][Aun]-OH; thioether N-14),9
